According to PMC11173382, “In Vitro Investigations into the Potential Drug Interactions of Pseudoginsenoside DQ Mediated by Cytochrome P450 and Human Drug Transporters” (Molecules, 2024):
pIC50: −log10 of the molar value. Like-named read-outs stand apart in the source and are kept apart here.

Columns and labels:
[1] = target: T1, CYP3A4 (Homo sapiens, UniProt P08684); experiment: CYP450 inhibition assay in human liver microsomes, CYP3A4 (midazolam and testosterone); format: in vitro ADME
T1 construct: tissue Corning 452117; host or cells: human liver microsomes
T1 sequence (P08684 whole entry): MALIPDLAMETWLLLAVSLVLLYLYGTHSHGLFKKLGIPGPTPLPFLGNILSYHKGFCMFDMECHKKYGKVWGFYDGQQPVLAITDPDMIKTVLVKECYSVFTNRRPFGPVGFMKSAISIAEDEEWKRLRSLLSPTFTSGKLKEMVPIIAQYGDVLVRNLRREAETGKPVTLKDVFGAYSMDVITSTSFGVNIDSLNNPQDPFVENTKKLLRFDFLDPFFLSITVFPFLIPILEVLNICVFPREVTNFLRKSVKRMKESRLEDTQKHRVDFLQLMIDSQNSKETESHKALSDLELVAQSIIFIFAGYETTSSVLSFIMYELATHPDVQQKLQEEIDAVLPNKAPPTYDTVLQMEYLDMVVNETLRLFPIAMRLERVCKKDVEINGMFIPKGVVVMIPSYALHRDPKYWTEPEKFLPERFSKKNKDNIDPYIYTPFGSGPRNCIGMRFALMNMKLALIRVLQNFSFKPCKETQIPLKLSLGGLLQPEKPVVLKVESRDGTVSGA
Protocol: To evaluate the reliability and reproducibility of the CYP450 inhibition assay, we measured the inhibitory effects of selected positive control inhibitors of each CYP450 enzyme in human liver microsomes (HLM, Table 1, Figure 2). The potency of inhibition was estimated by observing the alteration in concentration of metabolites of CYP450 substrates (Table 1).
Reagents preparation. […] The stock solution of PDQ (10 mM) was prepared with methanol and further diluted to the range of 3 µM to 3 mM with methanol to ensure that the solvent of different PDQ samples contained the same amount (1%) of methanol.
The stock solutions of the positive control inhibitors and the probe substrates of CYP450 enzymes were prepared in methanol.
CYP450 inhibition assay. […] The assay was conducted in polypropylene 96-well plates (2.2 mL/well, Apricot Designs Inc., Covina, CA, USA).
The total volume of the reaction is 200 μL. The HLM mixtures (102 μL) containing individual probe substrates (Table 3), KH2PO4 buffer (100 mM, pH 7.4), and either PDQ or the positive control inhibitors (Table 3) were incubated for 10 min at 37 °C in a shaking incubator. Reactions were initiated by adding 98 μL NADPH (final concentration is 1.3 mM NADPH, 3 mM MgCl2 in 100 mM KH2PO4 buffer). The HLM reaction mixtures were shaken at 37 °C for various times (Table 4). The reaction time of CYP3A4 (midazolam), CYP2C19 and CYP2D6 were 3, 20 and 20 min, respectively, while the reactions of other CYP enzymes were terminated after 10 min. The reactions were quenched by adding 200 μL acetonitrile containing 3% formic acid and specific internal standards (Table 4). After shaking at 1000 rpm for 10 min, the reaction mixtures were centrifuged at 4000 rpm for 20 min. Supernatants were diluted with ultrapure water (Table 4) and shaken for 10 min at 1000 rpm. […] The substrates and analytes were analyzed by LC-MS/MS (API4000, Applied Biosystems, Singapore; HPLC, Shimadzu, Japan). […]
Data analysis. […] The IC50 was determined by fitting the dependence of the relative remaining activity (y = Vi/V0) to the following three-parameter equation (Equation (1)). […]

[2] = target: T2, hOAT3 (Homo sapiens, UniProt Q8TCC7); experiment: Substrates uptake assay, S2-OAT3 cells (3H-ES); format: in vitro ADME; conditions: 3H-ES 0.05 µM, 2 min
T2 sequence (Q8TCC7 1-542): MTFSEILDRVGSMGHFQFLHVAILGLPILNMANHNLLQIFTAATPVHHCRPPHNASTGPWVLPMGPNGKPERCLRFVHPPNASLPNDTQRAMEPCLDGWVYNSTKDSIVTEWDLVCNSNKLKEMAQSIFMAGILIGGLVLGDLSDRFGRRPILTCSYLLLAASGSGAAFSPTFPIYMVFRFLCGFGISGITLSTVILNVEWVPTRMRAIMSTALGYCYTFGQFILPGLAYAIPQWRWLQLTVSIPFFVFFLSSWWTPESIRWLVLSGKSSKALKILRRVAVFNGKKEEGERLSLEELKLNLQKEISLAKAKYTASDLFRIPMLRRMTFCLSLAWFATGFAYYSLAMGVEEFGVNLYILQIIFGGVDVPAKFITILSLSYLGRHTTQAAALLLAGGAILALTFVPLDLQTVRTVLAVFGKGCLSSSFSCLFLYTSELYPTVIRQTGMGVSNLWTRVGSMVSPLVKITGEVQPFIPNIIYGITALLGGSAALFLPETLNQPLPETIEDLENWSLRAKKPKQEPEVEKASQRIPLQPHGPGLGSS

CC(C)(O)[C@@H]1CC[C@@](C)([C@H]2CC[C@]3(C)[C@@H]2[C@H](O)C[C@@H]2[C@@]4(C)CC[C@H](O)C(C)(C)[C@@H]4CC[C@]23C)O1 [PDQ, (20S,24S)-dammar-20,24-epoxy-3β, 12β, 25-triol]
pIC50 ([1]; HLM 0.1 mg/mL, probe midazolam 2 µM, 3 min, read-out: IC50 on CYP3A4 (Midazolam)): 5.69 | pIC50 ([1]; HLM 0.1 mg/mL, probe testosterone 40 µM, 10 min, read-out: IC50 on CYP3A4 (Testosterone)): 5.17 | pIC50 ([1]; HLM, midazolam and testosterone as substrates, read-out: IC50 on CYP3A4 (range over both substrates)): 5.17 to 5.69 | pIC50 [2]: < 4.52
